From patent US8927500B2, “Peptidomimetic macrocycles” (Aileron Therapeutics, Inc., priority 2012, dated 2015)
Where a SMILES comes first, the peptide text is derived from it. Bridges are numbered along the chain shown (N, C = ends). [ ]: non-standard residue; d: D form. R8 = C=CCCCCCC[C@@](C)(N)C(=O)O; Cha = N[C@@H](CC1CCCCC1)C(=O)O; hLeu = CC(C)CC[C@H](N)C(=O)O; S5 = C=CCCC[C@](C)(N)C(=O)O; Nle = CCCC[C@H](N)C(=O)O; Ac3c = NC1(C(=O)O)CC1; Aib = CC(C)(N)C(=O)O

How the values were obtained:
SJSA-1 cells = test: Cell lysis by peptidomimetic macrocycles (LDH release); assay type: cell-based; conditions: 1 h at 37C
Experimental: On the day of the assay, media was exchanged with RPMI 1% FBS media, 90 uL of media per well.
10 mM stock solutions of the peptidomimetic macrocycles were prepared in 100% DMSO.
The negative control (non-lytic) sample was 0.5% DMSO alone and positive control (lytic) samples include 10 uM Melittin and 1% Triton X-100.
Cell plates were incubated for 1 hour at 37C. After the 1 hour incubation, the morphology of the cells is examined by microscope and then the plates were centrifuged at 1200 rpm for 5 minutes at room temperature. 40 uL of supernatant for each peptidomimetic macrocycle and control sample is transferred to clear assay plates.

Caspase 3 = Caspase 3 detection assay in SJSA1 cells; assay type: cell-based; conditions: 48 h, Caspase 3 activation over DMSO-treated cells; for caspase 0.3 uM: 0.3 uM peptide; for caspase 3 uM: 3 uM peptide; for caspase 10 uM: 10 uM peptide; for caspase 30 uM: 30 uM peptide
MDMX = biological target: T1, MDMX (Homo sapiens, UniProt O15151); test: Competitive fluorescence polarization assay for MDMX; assay type: binding; conditions: competitive FP assay; for IC50: read-out: IC50 (MDMX); for Ki: read-out: Ki (MDMX)
T1 sequence (O15151 1-125): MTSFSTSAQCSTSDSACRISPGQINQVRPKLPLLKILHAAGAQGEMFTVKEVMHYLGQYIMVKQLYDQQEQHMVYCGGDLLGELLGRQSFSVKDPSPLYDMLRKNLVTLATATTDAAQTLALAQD

MDM2 = MDM2 (Homo sapiens, UniProt Q00987); test: Competitive fluorescence polarization assay for MDM2; assay type: binding; conditions: competitive FP assay, MDM2; for IC50: read-out: IC50 (MDM2); for Ki: read-out: Ki (MDM2)
Chain of MDM2 (Q00987 1-125): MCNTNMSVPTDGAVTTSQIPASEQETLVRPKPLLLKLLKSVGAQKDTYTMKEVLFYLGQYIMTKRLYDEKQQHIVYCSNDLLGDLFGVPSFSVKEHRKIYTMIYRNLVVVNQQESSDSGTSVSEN

Row | IC50 (MDMX) [nM] | Ki (MDMX) [nM] | IC50 (MDM2) [nM] | Ki (MDM2) [nM] | SMILES | 6.25 uM % Lysed cells (1 h LDH) (SJSA-1 cells) [%] | 25 uM % Lysed cells (1 h LDH) (SJSA-1 cells) [%] | 50 uM % Lysed cells (1 h LDH) (SJSA-1 cells) [%] | caspase 0.3 uM (Caspase 3) | caspase 3 uM (Caspase 3) | caspase 10 uM (Caspase 3) | caspase 30 uM (Caspase 3)
1 |  |  |  |  | CC[C@H](C)[C@H](NC(=O)[C@H](C)NC(=O)[C@H](C)NC(=O)[C@]1(C)CCCC=CCCCCCC[C@@](C)(NC(=O)[C@H](Cc2ccccc2)NC(=O)[C@@H](NC(=O)[C@H](CC(C)C)NC(C)=O)[C@@H](C)O)C(=O)N[C@@H](C)C(=O)N[C@@H](Cc2ccc(O)cc2)C(=O)N[C@@H](Cc2c[nH]c3ccccc23)C(=O)N[C@@H](C)C(=O)N[C@@H](CCC(N)=O)C(=O)N[C@@H](CC(C)C)C(=O)N1)C(=O)N[C@H](CC(C)C)C(N)=O (single isomer, unassigned) [compound 81] | 1 | 0 | 0 | 1 | 1 | 6 | 21
2 |  |  |  |  | CC(=O)N[C@@H](CC(C)C)C(=O)N[C@H](C(=O)N[C@@H](Cc1ccccc1)C(=O)N[C@]1(C)CCCCCCC=CCCC[C@@](C)(C(=O)N[C@@H](CO)C(=O)N[C@@H](C)C(=O)N[C@@H](C)C(N)=O)NC(=O)[C@H](C2CCCC2)NC(=O)[C@H](CCC(N)=O)NC(=O)[C@H](C)NC(=O)[C@H](Cc2c[nH]c3ccccc23)NC(=O)[C@H](Cc2ccc(O)cc2)NC(=O)[C@H](CCC(=O)O)NC1=O)[C@@H](C)O (single isomer, unassigned) [compound 149] | 6 | 7 | 21 | 1 | 2 | 4 | 10
3 |  |  |  |  | CC(=O)N[C@@H](CC(C)C)C(=O)N[C@H](C(=O)N[C@@H](Cc1ccccc1)C(=O)N[C@]1(C)CCCCCCC=CCCC[C@@](C)(C(=O)N[C@@H](CO)C(=O)N[C@@H](C)C(=O)N[C@@H](C)C(N)=O)NC(=O)[C@H](CC2CCC2)NC(=O)[C@H](CCC(N)=O)NC(=O)[C@H](C)NC(=O)[C@H](Cc2c[nH]c3ccccc23)NC(=O)[C@H](Cc2ccc(O)cc2)NC(=O)[C@H](CCC(=O)O)NC1=O)[C@@H](C)O (single isomer, unassigned) [compound 153] | 4 | 2 | 3 | 2 | 10 | 15 | 20
4 |  |  |  |  | CC(=O)N[C@@H](CC(C)C)C(=O)N[C@H](C(=O)N[C@@H](Cc1ccccc1)C(=O)N[C@]1(C)CCCCCCC=CCCC[C@@](C)(C(=O)N[C@@H](C)C(=O)N[C@@H](C)C(=O)N[C@@H](Cc2ccccc2)C(=O)N[C@H](C)C(N)=O)NC(=O)[C@H](CC(C)C)NC(=O)[C@H](CCC(N)=O)NC(=O)[C@H](C)NC(=O)[C@H](Cc2c[nH]c3ccccc23)NC(=O)[C@H](Cc2ccc(O)cc2)NC(=O)[C@H](CCC(=O)O)NC1=O)[C@@H](C)O (single isomer, unassigned) [compound 219] | 0 | −1 | 2 | 1 | 5 | 17 | 34
5 |  |  |  |  | CC[C@H](C)[C@H](NC(=O)[C@H](C)NC(=O)[C@H](C)NC(=O)[C@]1(C)CCCC=CCCCCCC[C@@](C)(NC(=O)[C@H](Cc2ccccc2)NC(=O)[C@@H](NC(=O)[C@H](CC(C)C)NC(C)=O)[C@@H](C)O)C(=O)N[C@@H](CCC(=O)O)C(=O)N[C@@H](Cc2c[nH]cn2)C(=O)N[C@@H](Cc2c[nH]c3ccccc23)C(=O)N[C@@H](C)C(=O)N[C@@H](CCC(N)=O)C(=O)N[C@@H](CC(C)C)C(=O)N1)C(=O)N[C@H](C)C(N)=O (single isomer, unassigned) [compound 223] | −2 | −4 | −1 | 1 | 1 | 5 | 18
6 | 100 to 1000 | 10 to 100 | 10 to 100 | 10 to 100 | CC(=O)N[C@@H](Cc1ccccc1)C(=O)N[C@]1(C)CCCCCCC=CCCC[C@@](C)(C(=O)N[C@@H](C)C(=O)N[C@@H](C)C(=O)N[C@@H](CC(C)C)C(N)=O)NC(=O)[C@H](CC(C)C)NC(=O)C2(CC2)NC(=O)[C@H](CCC(=O)O)NC(=O)[C@H](Cc2c[nH]c3ccccc23)NC(=O)[C@H](Cc2ccc(O)cc2)NC(=O)[C@H](C)NC1=O [compound 15] (Ac-F[R8]AYWE[Ac3c]L[S5]AAL-NH2; staple 2-9) | 1 | 2 | 5 |  |  |  | 
7 | 10 to 100 | < 10 | 10 to 100 | < 10 | CC(=O)N[C@@H](Cc1ccccc1)C(=O)N[C@]1(C)CCCCCCC=CCCC[C@@](C)(C(=O)N[C@@H](C)C(=O)N[C@@H](C)C(=O)N[C@@H](Cc2ccccc2)C(N)=O)NC(=O)[C@H](CC(C)C)NC(=O)C2(CC2)NC(=O)[C@H](CCC(=O)O)NC(=O)[C@H](Cc2c[nH]c3ccccc23)NC(=O)[C@H](Cc2ccc(O)cc2)NC(=O)[C@H](C)NC1=O [compound 18] (Ac-F[R8]AYWE[Ac3c]L[S5]AAF-NH2; staple 2-9) | 0 | 2 | 4 |  |  |  | 
8 | 10 to 100 | 10 to 100 | 100 to 1000 | 10 to 100 | CC[C@H](C)[C@H](NC(=O)[C@H](C)NC(=O)[C@H](C)NC(=O)[C@]1(C)CCCC=CCCCCCC[C@@](C)(NC(=O)[C@H](Cc2ccccc2)NC(C)=O)C(=O)N[C@@H](C)C(=O)N[C@@H](Cc2ccc(O)cc2)C(=O)N[C@@H](Cc2c[nH]c3ccccc23)C(=O)N[C@@H](CCC(=O)O)C(=O)NC2(CC2)C(=O)N[C@@H](CC(C)C)C(=O)N1)C(N)=O [compound 19] (Ac-F[R8]AYWE[Ac3c]L[S5]AAI-NH2; staple 2-9) | 2 | 3 | 21 |  |  |  | 
9 | 10 to 100 | 10 to 100 | 10 to 100 | < 10 | CC(=O)N[C@@H](Cc1ccccc1)C(=O)N[C@]1(C)CCCCCCC=CCCC[C@@](C)(C(=O)N[C@@H](C)C(=O)N[C@@H](C)C(=O)NC(C)(C)C(N)=O)NC(=O)[C@H](CC(C)C)NC(=O)C2(CC2)NC(=O)[C@H](CCC(=O)O)NC(=O)[C@H](Cc2c[nH]c3ccccc23)NC(=O)[C@H](Cc2ccc(O)cc2)NC(=O)[C@H](C)NC1=O [compound 22] (Ac-F[R8]AYWE[Ac3c]L[S5]AA[Aib]-NH2; staple 2-9) | 0 | 0 | 0 |  |  |  | 
10 | 100 to 1000 | 10 to 100 | 10 to 100 | < 10 | CC(=O)N[C@@H](Cc1c[nH]cn1)C(=O)N[C@@H](CC(C)C)C(=O)N[C@H](C(=O)N[C@@H](Cc1ccccc1)C(=O)N[C@]1(C)CCCCCCC=CCCC[C@@](C)(C(=O)N[C@@H](C)C(=O)N[C@@H](C)C(=O)N[C@@H](CCC(C)C)C(=O)N[C@@H](C)C(N)=O)NC(=O)[C@H](CC(C)C)NC(=O)[C@H](CCC(N)=O)NC(=O)[C@H](Cc2c[nH]cn2)NC(=O)[C@H](Cc2c[nH]c3ccccc23)NC(=O)[C@H](Cc2c[nH]cn2)NC(=O)[C@H](Cc2c[nH]cn2)NC1=O)[C@@H](C)O [compound 32] (Ac-HLTF[R8]HHWHQL[S5]AA[hLeu]A-NH2; staple 5-12) | 0 | 2 | 0 |  |  |  | 
11 | 100 to 1000 | 100 to 1000 | > 1000 | 100 to 1000 | CCCC[C@H](NC(=O)[C@H](C)NC(=O)[C@H](CCC(N)=O)NC(=O)[C@H](Cc1c[nH]cn1)NC(=O)[C@]1(C)CCCC=CCCCCCC[C@@](C)(NC(=O)[C@H](Cc2ccccc2)NC(C)=O)C(=O)N[C@@H](C)C(=O)N[C@@H](Cc2ccc(O)cc2)C(=O)N[C@@H](Cc2c[nH]c3ccccc23)C(=O)N[C@@H](CO)C(=O)N[C@@H](C)C(=O)N[C@@H](CC(C)C)C(=O)N1)C(N)=O [compound 39] (Ac-F[R8]AYWSAL[S5]HQA[Nle]-NH2; staple 2-9) | 0 | 0 | 3 |  |  |  | 
12 | > 1000 | 100 to 1000 | > 1000 | 100 to 1000 | CC(=O)N[C@@H](Cc1ccccc1)C(=O)N[C@]1(C)CCCCCCC=CCCC[C@@](C)(C(=O)N[C@@H](Cc2c[nH]cn2)C(=O)N[C@@H](CCCNC(=N)N)C(=O)N[C@@H](Cc2ccccc2)C(=O)N[C@@H](CC2CCCCC2)C(N)=O)NC(=O)[C@H](CC(C)C)NC(=O)[C@H](CCC(N)=O)NC(=O)[C@H](Cc2c[nH]cn2)NC(=O)[C@H](Cc2c[nH]c3ccccc23)NC(=O)[C@H](Cc2c[nH]cn2)NC(=O)[C@H](Cc2c[nH]cn2)NC1=O [compound 55] (Ac-F[R8]HHWHQL[S5]HRF[Cha]-NH2; staple 2-9) | 1 | 9 | 13 |  |  |  | 
13 | 100 to 1000 | 10 to 100 | < 10 | < 10 | CC(=O)N[C@@H](CC(C)C)C(=O)N[C@H](C(=O)N[C@@H](Cc1ccccc1)C(=O)N[C@]1(C)CCCCCCC=CCCC[C@@](C)(C(=O)N[C@@H](C)C(=O)N[C@@H](C)C(=O)N[C@@H](Cc2c[nH]c3ccccc23)C(=O)N[C@H](C)C(N)=O)NC(=O)[C@H](CC(C)C)NC(=O)[C@H](CCC(N)=O)NC(=O)[C@H](C)NC(=O)[C@H](Cc2c[nH]c3ccccc23)NC(=O)[C@H](Cc2ccc(O)cc2)NC(=O)[C@H](C)NC1=O)[C@@H](C)O [compound 211] (Ac-LTF[R8]AYWAQL[S5]AAW[dA]-NH2; staple 4-11) | 5 | 3 | 1 |  |  |  | 
